US20040259948A1, “Reciprocal regulation of inflammation and lipid metabolism by liver X receptors” (priority 2003, published 2004)

Columns and labels:
Format in all cases: cell-based
[1] = test system: human smooth muscle cells; assay: TNF-induced gene expression in human smooth muscle cells; conditions: TNF 6 hours; real time qPCR
Description: (§1) Activation of LXR by synthetic ligands inhibits inflammatory gene expression in multiple human cell types (FIG. 7A-C). TNFα plays a role in the induction of inflammatory mediators in during inflammation. Cells were treated for 6 hours with TNF as indicated and gene expression was measured by real time qPCR.

[2] = test system: human aortic endothelial cells; assay: TNF-induced gene expression in human aortic endothelial cells; conditions: TNF 6 hours; real time qPCR
Description: as §1

LXRβ/RXRα = molecular target: T1, LXRβ/RXRα (Homo sapiens, UniProt P55055); assay: Luciferase reporter transfection in RAW 264.7 cells, LXRβ/RXRα; conditions: 2 μM
T1 construct: expressed in transfected cells; host or cells: RAW 264.7
T1 sequence (P55055 1-460): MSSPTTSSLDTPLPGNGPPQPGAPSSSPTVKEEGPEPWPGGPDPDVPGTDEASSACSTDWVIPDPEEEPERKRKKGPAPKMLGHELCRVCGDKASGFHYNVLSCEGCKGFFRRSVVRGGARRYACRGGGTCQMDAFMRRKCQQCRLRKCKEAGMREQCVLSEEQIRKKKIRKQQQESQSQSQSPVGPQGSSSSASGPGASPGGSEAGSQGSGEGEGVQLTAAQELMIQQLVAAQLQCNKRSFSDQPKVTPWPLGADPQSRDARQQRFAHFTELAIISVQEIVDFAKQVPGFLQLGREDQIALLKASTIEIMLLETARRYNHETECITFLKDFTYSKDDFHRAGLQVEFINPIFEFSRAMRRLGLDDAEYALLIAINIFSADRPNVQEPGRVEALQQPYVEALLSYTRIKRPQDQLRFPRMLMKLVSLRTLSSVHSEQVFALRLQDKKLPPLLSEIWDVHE
T1 sequence (P19793 1-462 partner): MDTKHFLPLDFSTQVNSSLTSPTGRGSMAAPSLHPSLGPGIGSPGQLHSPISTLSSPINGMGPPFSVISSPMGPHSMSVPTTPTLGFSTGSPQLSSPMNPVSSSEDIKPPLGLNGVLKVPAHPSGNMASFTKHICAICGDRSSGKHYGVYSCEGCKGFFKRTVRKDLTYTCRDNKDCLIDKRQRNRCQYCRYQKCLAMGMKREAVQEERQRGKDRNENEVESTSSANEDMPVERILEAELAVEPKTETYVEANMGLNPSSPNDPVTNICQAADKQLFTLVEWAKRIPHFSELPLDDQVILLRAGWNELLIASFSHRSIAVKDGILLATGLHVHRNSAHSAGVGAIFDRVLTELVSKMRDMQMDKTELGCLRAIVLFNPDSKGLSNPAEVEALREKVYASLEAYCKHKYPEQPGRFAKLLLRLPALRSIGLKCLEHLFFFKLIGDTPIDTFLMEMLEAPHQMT
Description: We next investigated the mechanism by which LXR inhibits iNOS and COX-2 expression. […] RAW 264.7 cells were transfected with expression vectors for either LXRα/RXRα or LXRβ/RXRα along with luciferase reporter constructs. The LXR agonist inhibited expression of both iNOS and COX-2 gene promoters in a receptor-dependent fashion (FIG. 4 A and B). […] E, A dominant-negative IKK expression vector (IKK DN) blocks LXR-dependent repression of the COX-2 promoter. Transfected cells were treated with DMSO (ctrl), GW3965 (GW), LPS, or GW3965 and LPS. […] RAW 264.7 cells were transiently transfected with expression vectors for LXRα/RXRα, LXRβ/RXRα or dominant-negative I kappa B kinase (IKK) along with iNOS (A), COX-2 (B, E, F), NF-κB (C), AP-1 (D) or COX-2/NF-κB mutant (F) luciferase reporters. […] As activation of iNOS and COX-2 gene promoters by LPS is known to depend on interactions between AP-1 and NF-κB transcription factors, the effect of LXR on minimal promoters containing binding sites for these factors was evaluated. […] Moreover, the inhibitory effect of LXR on the COX-2 promoter was lost when NF-κB activity was blocked by transfection of a dominant-negative IKK or when binding sites for NF-κB were mutated (FIGS. 4E and F). These observations indicate that inhibition of inflammatory gene expression by LXR ligands involves antagonism of NF-κB signaling.
Reagents and plasmids. […] Oxysterols, LDL and ox-LDL were from Sigma and Intracell, respectively. LPS from Salmonella typhimurium was from Sigma. Expression plasmids for LXRα, LXRβ and IKK-DN (Castrillo, A. et al. 2001 J Biol Chem 276:15854-15860; Laffitte, B. A. et al. 2001 Mol Cell Biol 21:7558-7568), and reporter plasmids for NOS-2, (NFκB)3-LUC, (AP-1)4-LUC and COX-2 have been described (Callejas, N. A. et al. 2000 Gastroenterology 119:493-501).
Cell culture and transfections. Thioglycolate-elicited peritoneal macrophages were cultured in RPMI containing 10% fetal bovine serum (FBS). […] NO production was determined spectrophotometrically (Castrillo, A. et al. 2000 Mol Cell Biol 20:1692-1698).

O=C(O)Cc1cccc(OCCCN(Cc2cccc(C(F)(F)F)c2Cl)CC(c2ccccc2)c2ccccc2)c1 [GW3965]
TNF-induced gene expression [1]: inhibited | TNF-induced gene expression [2]: inhibited | induction of the COX-2 promoter by LPS (luciferase reporter) (LXRβ/RXRα): inhibits induction | induction of the iNOS promoter by LPS (luciferase reporter) (LXRβ/RXRα): inhibits induction | luciferase reporter containing multiple NF-κB binding sites (LXRβ/RXRα; LPS): inhibits expression
